Measured values published in patent publication US8722687B2, “Imidazo [1,2-A]pyridine derivatives as FGFR kinase inhibitors for use in therapy” (Astex Therapeutics Ltd, priority 2009, dated 2014).

Legend:
[1] = system: parental wild-type Ba/F3 cells; assay: Ba/F3 (WT) cell proliferation assay (Alamar Blue); type: cell-based, murine; conditions: read-out: BaF3 WT prolif; for IC50: BaF3, 72 hours, with mouse IL-3
Procedure: (§1) Ba/F3-TEL-FGFR3 & Ba/F3 (WT) Cell Proliferation Assays
(§2) Stably transfected Ba/F3-TEL-FGFR3 cells were plated out into black 96-well tissue culture plates with clear bottoms in RPMI medium containing 10% FBS and 0.25 mg/ml G418 at a density of 5×10^3 cells/well (200 μl per well). The parental wild-type Ba/F3 cells (DSMZ no.: ACC 300) were plated out into black 96-well tissue culture plates with clear bottoms in RPMI medium containing 10% FBS and 2 ng/ml mouse IL-3 (R&D Systems) at a density of 2.5×10^3 cells/well (200 μl per well). Plates were placed in an incubator overnight before adding the compounds the following day. Dilutions of compounds were made in DMSO starting at 10 mM and were diluted into the wells to give a final DMSO concentration of 0.1% in assay. Compounds were left on the cells for 72 hours before the plates were removed from the incubator and 20 μl of Alamar Blue™ (Biosource) was added to each well. Plates were placed in the incubator for 4-6 hours before reading plates at 535 nm (excitation)/590 nm (emission) on a Fusion plate reader (Packard). Where inhibition is high an IC50 can be determined.

Ba/F3-TEL-FGFR3 cells = molecular target: T1, Ba/F3-TEL-FGFR3 cells (Homo sapiens, UniProt P22607); assay: Ba/F3-TEL-FGFR3 cell proliferation assay (Alamar Blue); type: cell-based, murine; conditions: for GI50: 72 hours, read-out: BaF3-TEL-FGFR3 prolif
T1 construct: fused on or other part: TEL (ETV6) N-terminal oligomerising part fused to the FGFR3 kinase part; P41212 (Transcription factor ETV6)
T1 sequence (P22607 whole entry, change not shown, the tested form may be a part): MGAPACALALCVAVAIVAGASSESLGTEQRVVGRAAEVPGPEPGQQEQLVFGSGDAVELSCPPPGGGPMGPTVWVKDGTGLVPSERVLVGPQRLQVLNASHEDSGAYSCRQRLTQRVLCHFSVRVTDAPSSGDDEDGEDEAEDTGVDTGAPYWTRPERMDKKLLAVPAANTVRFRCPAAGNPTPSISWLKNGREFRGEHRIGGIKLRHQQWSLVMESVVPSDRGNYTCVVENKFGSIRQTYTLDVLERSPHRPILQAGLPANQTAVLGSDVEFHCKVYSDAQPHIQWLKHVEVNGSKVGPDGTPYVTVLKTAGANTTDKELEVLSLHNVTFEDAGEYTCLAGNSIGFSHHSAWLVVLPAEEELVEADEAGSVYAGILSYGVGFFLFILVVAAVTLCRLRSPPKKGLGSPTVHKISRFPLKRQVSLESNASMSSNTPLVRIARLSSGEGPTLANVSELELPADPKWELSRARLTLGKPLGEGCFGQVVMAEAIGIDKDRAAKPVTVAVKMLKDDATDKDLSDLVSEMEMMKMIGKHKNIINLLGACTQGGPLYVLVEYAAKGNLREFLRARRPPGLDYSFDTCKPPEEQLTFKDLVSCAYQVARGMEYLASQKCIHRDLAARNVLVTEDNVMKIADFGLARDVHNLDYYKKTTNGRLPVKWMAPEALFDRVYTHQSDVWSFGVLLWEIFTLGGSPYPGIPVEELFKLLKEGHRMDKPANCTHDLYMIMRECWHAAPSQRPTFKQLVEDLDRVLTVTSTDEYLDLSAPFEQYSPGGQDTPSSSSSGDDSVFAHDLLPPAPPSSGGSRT
Procedure: as §1, §2

FGFR3 = molecular target: T2, FGFR3 (Homo sapiens, UniProt P22607); assay: FGFR3 in vitro kinase inhibitory activity assay; type: biochemical; conditions: for IC50: read-out: FGFR3 IC50(μM) or % I
T2 construct: purchased Upstate
T2 sequence (P22607 23-806): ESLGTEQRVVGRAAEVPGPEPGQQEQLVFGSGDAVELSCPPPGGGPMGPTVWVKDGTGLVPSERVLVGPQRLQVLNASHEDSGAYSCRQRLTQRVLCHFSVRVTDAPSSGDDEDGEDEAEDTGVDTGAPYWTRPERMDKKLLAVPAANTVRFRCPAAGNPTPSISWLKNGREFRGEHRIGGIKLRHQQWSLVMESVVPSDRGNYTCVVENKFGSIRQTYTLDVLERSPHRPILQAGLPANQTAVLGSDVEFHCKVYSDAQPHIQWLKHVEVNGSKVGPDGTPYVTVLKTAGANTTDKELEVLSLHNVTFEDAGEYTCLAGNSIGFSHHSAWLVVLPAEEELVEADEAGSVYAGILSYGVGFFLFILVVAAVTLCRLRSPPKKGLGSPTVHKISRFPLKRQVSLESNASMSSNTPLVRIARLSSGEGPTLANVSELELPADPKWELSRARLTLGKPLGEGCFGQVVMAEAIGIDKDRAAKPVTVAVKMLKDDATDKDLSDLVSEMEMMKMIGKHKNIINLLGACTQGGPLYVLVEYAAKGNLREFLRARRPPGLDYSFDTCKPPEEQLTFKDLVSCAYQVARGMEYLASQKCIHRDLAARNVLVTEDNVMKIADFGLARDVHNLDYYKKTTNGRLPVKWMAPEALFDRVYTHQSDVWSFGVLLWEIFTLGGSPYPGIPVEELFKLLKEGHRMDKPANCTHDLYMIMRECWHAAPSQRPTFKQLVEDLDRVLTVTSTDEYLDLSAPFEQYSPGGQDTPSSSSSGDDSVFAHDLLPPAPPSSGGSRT
Procedure: FGFR3, VEGFR2 and PDGFR in vitro Kinase Inhibitory Activity Assays
Enzymes (from Upstate), prepared at 2× final concentration, were incubated with test compounds, biotinylated Flt3 substrate (biotin-VASSDNEYFYVDF) (Cell Signalling Technology Inc.) and ATP in the appropriate assay buffer (Table 1). The reaction was allowed to proceed for 3 hours (FGFR3), 1 hour (VEGFR2, PDGFR-beta) at room temperature on a plate shaker at 700 rpm before being stopped with 35 mM EDTA, pH 8 (FGFR3, VEGFR2) or 55 mM EDTA, pH 8 (PDGFR-beta). 5× detection mix/50 mM HEPES pH 7.5, 0.1% BSA, 11.34 nM Eu-anti-pY (PY20) (PerkinElmer) 74 nM SA-XL665 (Cisbio) for FGFR3, 50 mM HEPES, pH 7.5, 0.1% BSA, 11.34 nM Eu-anti-pY (PY20), 187.5 nM SA-XL665 for VEGFR2 and 50 mM HEPES, pH 7.5, 0.1% BSA, 11.34 nM Eu-anti-pY (PT66) (PerkinElmer), 375 nM SA-XL665 (Cisbio) for PDGFR-beta) was then added to each well and the plate sealed and incubated at room temperature for one hour on a plate shaker at 700 rpm. The plate was then read on a Packard Fusion plate reader or a BMG Pherastar both in TRF mode.

Ba/F3-Flt3 cells = assay: Ba/F3-Flt3 assay (Alamar Blue); type: cell-based, murine; conditions: Mus musculus, 24 h; with 10 ng/ml murine IL3; read-out: Ba/F3-flt3 + IL3 pIC50 (converted)
Text: Ba/F3, a murine interleukin-3 dependent pro-B cell line is increasingly popular as a model system for assessing both the potency and downstream signaling of kinase oncogenes, and the ability of small-molecule kinase inhibitors to block kinase activity. Facilitated by their growth properties. Ba/F3 cells have recently been adapted to high throughput assay formats for compound profiling. Further, several published approaches show promise in predicting resistance to small-molecule kinase inhibitors elicited by point mutations interfering with inhibitor binding (Ba/F3 cells and their use in kinase drug discovery; Markus Warmuth, Sungjoon Kim, Xiang-ju Gu, Gang Xia and Francisco Adria'n; Curr Opin Oncol 19:55-60).
Ba/F3-Flt3 cells (cultured in phenol red free RPMI-1640, 10% A FCS and 50 μg/ml Gentamycin at 37° C. and 5% 002) were plated at a density of 10000 cells in a total volume of 180 μl medium in a black TC-treated sterile 96-well plate (Corning). After 24 hours, drugs in different dilutions were added to a final volume of 200 μl and at a final DMSO concentration of 0.2% prior to incubation at 37° C., and 5% CO2.
After 24 h, to each well 40 μl Alamar Blue solution (Aldrich) was added and the cells were further incubated for 4 hours at 37° C. Fluorescence (ex. 544, em. 590 nm) was measured using a fluorescence reader (Labsystems) and IC50's were calculated.
In the condition containing IL3, 10 ng/ml of murine IL3 (PeproTech) was added during compound incubation.

Row | Structure (SMILES) | GI50 (Ba/F3-TEL-FGFR3 cells) | IC50 (FGFR3) | IC50 (Ba/F3-Flt3 cells) | BaF3-TEL-FGFR3 prolif (μM) (Ba/F3-TEL-FGFR3 cells; % at 0.100 μM) | FGFR3 IC50(μM) or % I (FGFR3; % I at 0.003 (unit not given)) | inhibition at 3 µM ([1]; Mus musculus, BaF3, 72 h) | inhibition at 10 µM ([1]; Mus musculus, BaF3, 72 h) | IC50 [1] | inhibition at 1 µM ([1]; Mus musculus, BaF3, 72 h, % at 1.00 μM)
1 | CCOc1cc(NC(=O)NCC(F)(F)F)cc(-c2cnc3cc(-c4ccnc(C(F)(F)F)n4)ccn23)c1 [Compound F-16, 1-{3-Ethoxy-5-[7-(2-trifluoromethyl-pyrimidin-4-yl)-imidazo[1,2-a]pyridin-3-yl]-phenyl}-3-(2,2,2-trifluoro-ethyl)-urea] | 470 nM | 0.027 µM | > 10000 nM |  |  |  | 32% |  | 
2 | Cc1nc(-c2ccn3c(-c4cc(NC(=O)NCC(F)(F)F)cc(OC(C)C)c4)cnc3c2)ccc1F [Compound F-3, 1-{3-[7-(5-Fluoro-6-methyl-pyridin-2-yl)-imidazo[1,2-a]pyridin-3-yl]-5-isopropoxy-phenyl}-3-(2,2,2-trifluoro-ethyl)-urea] | 330 nM | 0.0087 µM | > 10000 nM |  |  |  |  | ~8000 nM | 
3 | CC(C)Oc1cc(NC(=O)NCC(F)(F)F)cc(-c2cnc3cc(-c4nccc(C(C)C)n4)ccn23)c1 [Compound F-29, 1-{3-Isopropoxy-5-[7-(4-isopropyl-pyrimidin-2-yl)-imidazo[1,2-a]pyridin-3-yl]-phenyl}-3-(2,2,2-trifluoroethyl)-urea] | 3160 nM | 0.092 µM | > 10000 nM |  |  |  |  | 3980 nM | 
4 | Cc1nc(N)cc(-c2ccn3c(-c4cc(NC(=O)NCC(F)(F)F)cc(OC(C)C)c4)cnc3c2)n1 [Compound F-4, 1-{3-[7-(6-Amino-2-methyl-pyrimidin-4-yl)-imidazo[1,2-a]pyridin-3-yl]-5-isopropoxy-phenyl}-3-(2,2,2-trifluoro-ethyl)-urea] |  |  | > 10000 nM | 50.0% at 0.100 μM | 45.0% at 0.003 |  | 5% |  | 
5 | COCc1cc(NC(=O)NCC(F)(F)F)cc(-c2cnc3cc(-c4nnc(C)o4)ccn23)c1 [Compound F-7, 1-{3-Methoxymethyl-5-[7-(5-methyl-[1,3,4]oxadiazol-2-yl)-imidazo[1,2-a]pyridin-3-yl]-phenyl}-3-(2,2,2-trifluoro-ethyl)-urea] | 350 nM | 0.018 µM | > 10000 nM |  |  |  | 0% |  | 
6 | CC(C)Oc1cc(NC(=O)NCC(F)(F)F)cc(-c2cnc3cc(OCCCO)ccn23)c1 [Compound F-18, 1-{3-[7-(3-Hydroxy-propoxy)-imidazo[1,2-a]pyridin-3-yl]-5-isopropoxy-phenyl}-3-(2,2,2-trifluoro-ethyl)-urea] | 440 nM | 0.02 µM | > 10000 nM |  |  |  | 54% |  | 
7 | CC(C)Oc1cc(NC(=O)NCC(F)(F)F)cc(-c2cnc3cc(OCCO)ccn23)c1 [Compound F-17, 1-{3-[7-(2-Hydroxy-ethoxy)-imidazo[1,2-a]pyridin-3-yl]-5-isopropoxy-phenyl}-3-(2,2,2-trifluoro-ethyl)-urea] | 500 nM | 0.017 µM | > 10000 nM |  |  |  | 0% |  | 

Further lines, with some results ahead:

Row | GI50 (Ba/F3-TEL-FGFR3 cells) | IC50 (FGFR3) | IC50 (Ba/F3-Flt3 cells) | BaF3-TEL-FGFR3 prolif (μM) (Ba/F3-TEL-FGFR3 cells; % at 0.100 μM) | FGFR3 IC50(μM) or % I (FGFR3; % I at 0.003 (unit not given)) | Structure (SMILES) | inhibition at 3 µM ([1]; Mus musculus, BaF3, 72 h) | inhibition at 10 µM ([1]; Mus musculus, BaF3, 72 h) | IC50 [1] | inhibition at 1 µM ([1]; Mus musculus, BaF3, 72 h, % at 1.00 μM)
8 | 9 nM | 0.00096 µM | > 10000 nM |  |  | Cc1nnc(-c2ccn3c(-c4cc(NC(=O)NCC(F)(F)F)cc(OC(C)C)c4)cnc3c2)s1.Cl [Compound F-20, 1-{3-Isopropoxy-5-[7-(5-methyl-[1,3,4]thiadiazol-2-yl)-imidazo[1,2-a]pyridin-3-yl]-phenyl}-3-(2,2,2-trifluoro-ethyl)-urea] | 0% |  |  | 
9 | 31 nM | 0.0012 µM | > 10000 nM |  |  | CC(C)Oc1cc(NC(=O)NCC(F)(F)F)cc(-c2cnc3cc(C(=O)C4CC4)ccn23)c1 [Compound F-6, 1-[3-(7-Cyclopropanecarbonyl-imidazo[1,2-a]pyridin-3-yl)-5-isopropoxy-phenyl]-3-(2,2,2-trifluoro-ethyl)-urea] |  |  | 5600 nM | 
10 | 170 nM | 0.0144 µM | > 10000 nM |  |  | CC(C)Oc1cc(NC(=O)NCC(F)(F)F)cc(-c2cnc3cc(-c4ncccn4)ccn23)c1 [Compound F-2, 1-[3-Isopropoxy-5-(7-pyrimidin-2-yl-imidazo[1,2-a]pyridin-3-yl)-phenyl]-3-(2,2,2-trifluoro-ethyl)-urea] |  | 33% |  | 
11 | 230 nM | 0.013 µM | > 10000 nM |  |  | CCNC(=O)Nc1cc(OC(C)C)cc(-c2cnc3cc(-c4nncs4)ccn23)c1 [Compound F-10, 1-Ethyl-3-[3-isopropoxy-5-(7-[1,3,4]thiadiazol-2-yl-imidazo[1,2-a]pyridin-3-yl)-phenyl]-urea] |  | 34% |  | 
12 | 50 nM | 0.004 µM | > 10000 nM |  |  | CCNC(=O)Nc1cc(OC(C)C)cc(-c2cnc3cc(-c4nnc(C)s4)ccn23)c1 [Compound F-23, 1-Ethyl-3-{3-isopropoxy-5-[7-(5-methyl-[1,3,4]thiadiazol-2-yl)-imidazo[1,2-a]pyridin-3-yl]-phenyl}-urea] |  | 5% |  | 
13 | 170 nM | 0.034 µM | > 10000 nM |  |  | CC(C)Oc1cc(NC(=O)NCC(F)(F)F)cc(-c2cnc3cc(-c4ccnc(C(F)(F)F)n4)ccn23)c1 [Compound F-8, 1-{3-Isopropoxy-5-[7-(2-trifluoromethyl-pyrimidin-4-yl)-imidazo[1,2-a]pyridin-3-yl]-phenyl}-3-(2,2,2-trifluoro-ethyl)-urea] |  |  | ~2000 nM | 
14 | 100 nM | 0.0016 µM | > 10000 nM |  |  | Cc1cn(-c2ccn3c(-c4cc(NC(=O)NCC(F)(F)F)cc(OC(C)C)c4)cnc3c2)cn1 [Compound F-28, 1-{3-Isopropoxy-5-[7-(4-methylimidazol-1-yl)-imidazo[1,2-a]pyridin-3-yl]-phenyl}-3-(2,2,2-trifluoro-ethyl)-urea] |  | 73% |  | 
15 | 42 nM | 0.00247 µM | > 10000 nM |  |  | CC(C)Oc1cc(NC(=O)NCC(F)(F)F)cc(-c2cnc3cc(-c4nncs4)ccn23)c1.Cl [Compound F-19, 1-[3-Isopropoxy-5-(7-[1,3,4]thiadiazol-2-yl-imidazo[1,2-a]pyridin-3-yl)-phenyl]-3-(2,2,2-trifluoro-ethyl)-urea] |  |  |  | 0%
16 | 240 nM | 0.0093 µM | > 10000 nM |  |  | COCc1cc(NC(=O)NCC(F)(F)F)cc(-c2cnc3cc(-c4ccnc(C(F)(F)F)n4)ccn23)c1 [Compound F-9, 1-{3-Methoxymethyl-5-[7-(2-trifluormethyl-pyrimidin-4-yl)-imidazo[1,2-a]pyridin-3-yl]-phenyl}-3-(2,2,2-trifluoro-ethyl)-urea] | 17% |  |  | 
